From publication PMC7024175, “In Depth Analysis of Kinase Cross Screening Data to Identify CAMKK2 Inhibitory Scaffolds” (Molecules, 2020)
Each block holds one compound with its values, some of them ahead of it.

Assays:
BRD4 = conditions: cited from earlier work
CAMKK2 [1] = target: T1, CAMKK2 (Homo sapiens, UniProt Q96RR4); assay: CAMKK2 enzyme assay (radiometric, CaMKKtide); type: biochemical; conditions: read-out: PoC (activity remaining); for remaining activity at 0.1 µM: 0.1 µM inhibitor; for remaining activity at 1 µM: 1.0 µM inhibitor
T1 construct: made in house

CAMKK2 [2] = conditions: activity reported in the literature; cited from earlier work
[3] = HLM, mass spectrometry analysis; cited from earlier work
casein kinase 2 (CK2) = target: casein kinase 2 (CK2); design: method as in earlier work; conditions: ref 80 (Bain et al.); cited from earlier work
[4] = system: aryl hydrocarbon receptor; design: method as in PMID 18755850; conditions: cited from earlier work
mice = conditions: mouse, in vivo; cited from earlier work
[5] = cited from earlier work

T1 sequence (Q96RR4 whole entry): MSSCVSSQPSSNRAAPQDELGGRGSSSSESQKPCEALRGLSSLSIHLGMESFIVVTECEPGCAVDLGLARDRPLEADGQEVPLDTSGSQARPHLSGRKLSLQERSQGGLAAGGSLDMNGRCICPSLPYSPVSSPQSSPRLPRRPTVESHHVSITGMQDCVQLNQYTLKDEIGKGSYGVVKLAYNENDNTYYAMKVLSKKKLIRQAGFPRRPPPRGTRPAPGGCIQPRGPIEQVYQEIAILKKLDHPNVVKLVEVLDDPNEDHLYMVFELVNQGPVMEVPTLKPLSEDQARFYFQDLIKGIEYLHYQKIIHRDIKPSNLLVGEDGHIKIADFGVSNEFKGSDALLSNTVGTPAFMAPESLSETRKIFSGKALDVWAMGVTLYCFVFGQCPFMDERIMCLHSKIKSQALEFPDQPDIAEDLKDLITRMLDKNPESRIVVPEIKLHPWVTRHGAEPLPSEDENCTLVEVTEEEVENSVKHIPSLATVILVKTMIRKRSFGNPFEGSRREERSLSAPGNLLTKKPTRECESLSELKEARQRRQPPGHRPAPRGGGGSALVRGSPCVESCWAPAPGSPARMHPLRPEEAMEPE

Structure (SMILES): CC[C@@H]1C(=O)N(C)c2cnc(Nc3ccc(C(=O)NC4CCN(C)CC4)cc3OC)nc2N1C1CCCC1 [BI2536]
BRD4 inhibition (BRD4): potent inhibitor of BRD4

remaining activity at 0.1 µM (CAMKK2 [1]): 4%
remaining activity at 1 µM (CAMKK2 [1]): 3%
Structure (SMILES): O=C(O)c1ccc(-c2c[nH]c3ncc(-c4ccccc4)cc23)cc1C1CCCC1 [GSK650394]
pIC50 CAMKK2 reported in the literature (CAMKK2 [2]): 9.2

Structure (SMILES): O=C(O)c1ccc2c3c1cccc3c(=O)n1c3ccccc3nc21 [STO 609, 7-oxo-7H-benzimidazo[2,1-a]benz[de]isoquinoline-3-carboxylic acid]
metabolism on exposure to human liver microsomes [3]: metabolized to three mono-hydroxylated byproducts, principally by CYP1A2
remaining activity at 0.01 µM (CAMKK2 [1]; 0.01 µM inhibitor): 63%
remaining activity at 0.1 µM (CAMKK2 [1]): 56%
remaining activity at 1 µM (CAMKK2 [1]): 21%
IC50 (casein kinase 2 (CK2)): 190 nM
aryl hydrocarbon receptor binding/activation [4]: binds and activates the aryl hydrocarbon receptor
tolerability, hepatic and renal toxicity (mice): well tolerated in mice without significant hepatic or renal toxicity
aqueous solubility [5]: poor aqueous solubility
